# Measured values taken from patent US20120201981A1, “COMBINATIONS OF BIOLOGICAL CONTROL AGENTS WITH A NEMATICIDAL SEED COATING” (priority 2006, published 2012).
# What was measured:
# M. incognita race 1 = test: Tomato miniplot field trial; format: in vivo, Meloidogyne incognita; conditions: P. chlamydosporia 4000 chlamydospores/cm^3 substrate
# Method: Nine miniplots (3 m diameter, 12 cm deep) were each filled with approximately 350000-cm^3 field soil (sandy loam, pH 7.2) obtained from an adjacent field with no significant infestation of plant-parasitic nematodes. Tomato seedlings (Lycopersicum esculentum cv. Tiny Tim) were raised from abamectin-treated seed (0.3 mg a.i./seed) or from Apron/Maxim-treated seed. They were seeded in seedling trays with commercial transplant substrate (Sunshine mix). The substrate was either non-amended or amended with P. chlamydosporia (4000 chlamydospores/cm^3 substrate). After 3 weeks in a greenhouse, the seedlings were transplanted into the 9 miniplots. Each plot was a randomized block with 4 treatments and three plants per treatment. Each planting area was infested by distributing 10,000 eggs of M. incognita race 1 into three 5 cm deep holes approximately 5 cm from each transplant. The plots were irrigated via low-pressure irrigation and fertilized according to local standard. After approximately 10 weeks the plants set fruit and were harvested three times during the following 3 weeks. Number of fruits and weight were taken. All data were subject to ANOVA and mean separation with Fisher's LSD (P=0.05).
# [1] = system: root-knot nematodes, Meloidogyne incognita race 1; test: Cucumber green house trial, cucumber seed coating trial 1; format: in vivo; conditions: for main vine length (cm) @ 8 weeks / number egg masses/root / plant dry weight (g) @ 8 weeks / plant height (mm) @ 3 weeks / root galling @ 8 weeks: cucumber, rkn, mean ± SE; for root galling @ 8 weeks: scale 0-10 (0=no galling)
# Method: (§1) Pots (10-cm diameter) were filled with 250 g (dry weight) steam-pasteurized river bottom sand. Ten treatments with 6 replications were prepared (Table 1). The fungal antagonist Pochonia chlamydosporia was grown on autoclaved moist millet seed for three weeks at 22° C. Colonized millet was dried in a laminar flow hood, and stored aseptically at 4° C. until use. For soil inoculation, P. chlamydosporia-colonized millet was thoroughly mixed with the sand. Population density of the fungus was approximately 2000 chlamydospores/cc soil for rate 1 and 4000 chlamydospores/cc soil for rate 2.
# (§2) The nematode inoculum was raised during the previous 3 months on tomato plants (Lycopersicum esculentum cv. Tropic) in the greenhouse. Nematode eggs were obtained by standard bleach/sieving extraction. With the exception of the first treatment, each pot was infested with ca. 30000 eggs of M. incognita. This is a typical infestation level for nematicide tests resulting in high disease pressure (expected gall rating for non-treated control at 8 weeks was approximately 7 on a scale of 0-10 (Zeck, Pflanzenschutz-Nachrichten, Bayer AG, 24:141-144, 1971). Cucumber seeds (Cucumis sativus L. cv. Straight Eight, Burpee Seed Co.) were coated with either0.1 mg or 0.3 mg abamectin/seed or received no further treatment. Each pot received slow-release fertilizer (Osmocote Vegetable and Bedding Plant Food, 14-14-14, The Scotts Company) recommended for tomato production. The pots were arranged in a randomized complete block design in a greenhouse at ca. 24°±3° C. and ambient lighting. Irrigation was applied daily as needed. Three and eight weeks after seeding plant height or main vine length was determined. Eight weeks after seeding the trial was terminated and the plant tops were cut off. They were placed in a drying oven overnight and their weight was determined. The roots were placed in eryoglaucin solution overnight and the stained egg masses of the root-knot nematodes were counted. Root galling was rated on a scale of 0-10 (0=no galling). The trial was repeated once.
# [2] = system: Meloidogyne incognita race 3; test: Root-knot nematode trial on tomato, abamectin seed coating with soil application of Pasteuria penetrans
# Method: Abamectin coated (0.3 mg a.i./seed) and non-treated tomato seed (cv. Kirby) was provided by Syngenta Crop Protection. The treatments were seeded in individual seedling trays. After 3 weeks incubation in a greenhouse at 25°±2° C., the seedlings were transplanted into 1500 cm^3 pots containing the test soil. The soil was collected from a field at the UC South Coast Research and Extension Center at Irvine (San Emigdio sandy loam, 12.5% sand, 12% clay, 75.4% silt, 0.45 OM, pH 7.4). To improve soil aeration and irrigation water drainage, ⅔ of the soil was mixed with ⅓ (v/v) plaster sand. The soil was pasteurized and infested with root-knot nematodes. Meloidogyne incognita race 3 inoculum was reared on tomato cv. UC 82 for ca. three months in greenhouse cultures. Nematode eggs were harvested from the root systems by a modification of a bleach/sieving method (Hussey and Barker, Plant Disease Reporter, 57:1025-1028 (1973)) and used to infested the test soil with 1000 eggs of M. incognita race 3 per 100 cm^3. Pasteuria penetrans was obtained from the University of California Riverside Nematology culture collection. The inoculum was reared on root-knot nematode-infested tomato plants. In the Pasteuria treatments, the soil was amended with approximately 1×10^5 endospores/g soil. The trial was arranged as a complete randomized block with 6 replications and incubated in a greenhouse at 26°±2° C. with ambient light. All pots were fertilized with Osmocote 14-14-14 (label rate for tomato production). Irrigation was applied as needed. Two months after transplanting, plant tops were cut off at the soil level, oven dried and weighted. Roots were rated for galling on a scale of 0-10 (Zeck, Bayer AG, Pflanzenschutz-Nachrichten, 24:141-144 (1971)).
# [3] = system: root-knot nematodes, Meloidogyne incognita race 1; test: Cucumber green house trial, cucumber seed coating trial 2; format: in vivo; conditions: rkn, mean ± SE
# Method: as §1, §2
# [4] = system: root-knot nematodes, Meloidogyne incognita race 1; test: Tomato green house trials (data of two trials combined); format: in vivo; conditions: for J2/50 ml soil / Plant dry weight(g) / Plant height(cm) / egg count/root / egg masses/root / Root galling / fruit weight (g) / number of fruits/plant / total fruit weight/plant (g): tomato, rkn, mean ± SE; for J2/50 ml soil / Plant dry weight(g) / Plant height(cm) / egg count/root / egg masses/root / Root galling: trial termination; for Root galling: scale from 0-10; for fruit weight (g): average fruit weight
# Method: The greenhouse trials were conducted in pulp pots (10-cm diameter) filled with steam-pasteurized sand (250 cm^3). The biological control organism (BCO) P. chlamydosporia was grown as described above. P. chlamydosporium-inoculated millet seed were washed (1:2 weight/volume millet seed and sterile distilled water, 2 min shaking in electric blender) and passed through a 100-mesh sieve to remove the millet from the fungal chlamydospores. These served as the inoculum and were counted with a counting chamber (Fuchs-Rosenthal). The chlamydospores were thoroughly mixed with the sand. Population density of fungus was approximately 2000 chlamydospores/g soil for rate 1 and 4000 chlamydospores/g soil for rate 2 (Table 1). Tomato seeds (Lycopersicum esculentum cv. Tiny Tim) were coated with either 0.1 mg or 0.3 mg abamectin/seed or received no further treatment (Table 1). The tomato seeds were sown into seeding trays with commercial seedling substrate and after 2 weeks the plants were transplanted into 10-cm pulp pots. With the exception of the first treatment, each pot was infested with ca. 30000 eggs of M. incognita. Egg hatch rate was approximately 10% on Baerman funnels at 26° C. for 5 days. Each pot received slow release fertilizer (Osmocote Vegetable and Bedding Plant food, 14-14-14, The Scotts Company). Pots were arranged in a randomized complete block design with 6 replications per treatment and incubated in greenhouse at ca. 24±3C and ambient lighting. Plants were watered daily as needed. Plant height was determined and the shoots were cut off at the end of the trial. Shoots be placed in a drying oven at 69° C. for 72 h and the weight of each plant was determined. The extent of root galling was assessed on a scale from 0-10 (Zeck, 1971, supra).
# Nematode populations were determined by counting egg masses (=number of fecundate females), eggs and second-stage juvenile (J2). The roots were placed in eryoglaucin solution overnight to stain egg masses of the root-knot nematodes which enabled their enumeration (Omwega et al., 1988). The eggs were released from egg masses through a modified bleach/sieving extraction technique (Hussey and Barker, 1973). Each week, ripe (red) tomato fruits were picked off, and the number and weight were recorded. Picking was continued until fruit production seized. The trial was repeated once. All data were subject to analysis of variation with SuperANOVA (Abacus Concepts, 1989, Berkeley, Calif.). If appropriate, Fisher's Protected Least Significant Difference (LSD) was used to separate means at P=0.05.
# [5] = tomato miniplots, 10,000 eggs per planting area, mean ± SE, abamectin 0.3 mg/seed
# [6] = abamectin seed coating 0.1 mg/seed
# [7] = abamectin seed coating 0.3 mg/seed
# [8] = tomato cv. Kirby, two months after transplanting, mean ± SE, abamectin seed coated 0.3 mg a.i./seed, P. penetrans soil incorporated 1 × 10E5/g soil
substance,measurement,setting,value
abamectin,yield (in words),"M. incognita race 1; tomato miniplot field trial, abamectin 0.3 mg a.i./seed",increased the yield significantly
same,M. incognita eggs/plant,M. incognita race 1; [5],"171,400 ± 37,100 a"
same,number fruits/plant,M. incognita race 1; [5],69.0 ± 3.2 b
same,root galling at harvest,M. incognita race 1; [5],4.5 ± 0.2 c
same,total fruit weight/plant,M. incognita race 1; [5],290.6 ± 12.6 b
same,plant growth compared to the non-treated control plants (in words),"[1]; cucumber trial 1, 0.3 mg/seed rate of abamectin",significant increases in early plant growth as well as in plant dry weight and main vine length
same,plant growth and root galling (in words),"[1]; cucumber trial 1, low rate of abamectin",neither plant growth was improved nor root galling was significantly reduced
same,main vine length (cm) @ 8 weeks,[1]; [6],100.7 ± 8.8 ab cm
same,number egg masses/root,[1]; [6],108.2 ± 14.0 ab
same,plant dry weight (g) @ 8 weeks,[1]; [6],4.2 ± 0.4 a g
same,plant height (mm) @ 3 weeks,[1]; [6],70.8 ± 2.3 a mm
same,main vine length (cm) @ 8 weeks,[1]; [7],127.8 ± 11.9 cde cm
same,number egg masses/root,[1]; [7],85.8 ± 12.8 ab
same,plant dry weight (g) @ 8 weeks,[1]; [7],5.7 ± 0.4 bc g
same,plant height (mm) @ 3 weeks,[1]; [7],90.8 ± 7.1 bc mm
same,root galling @ 8 weeks,[1]; [6],6.3 ± 0.6 de
same,root galling @ 8 weeks,[1]; [7],5.8 ± 0.4 cde
same,J2/50 cc soil,"[2]; tomato cv. Kirby, trial termination, mean ± SE, abamectin seed coated 0.3 mg a.i./seed, P. penetrans soil incorporated 1 × 10E5/g soil",95 ± 15 b
same,plant top dry weight (g),[2]; [8],31.3 ± 1.8 ab g
same,root gall rating (0-10),[2]; [8],3.3 ± 0.3 ab
same,root galling (in words),"[2]; tomato, abamectin 0.3 mg a.i./seed, P. penetrans 1×10^5 endospores/g soil",reduced galling by approximately two rating classes
same,main vine length (cm) @ 8 weeks,[3]; [6],146.2 ± 9.8 c cm
same,number egg masses/root system @ 8 weeks,[3]; [6],80.8 ± 27.8 b
same,plant dry weight (g) @ 8 weeks,[3]; [6],6.4 ± 0.5 c g
same,plant height (mm) @ 3 weeks,[3]; [6],96.2 ± 6.4 bcd mm
same,root galling @ 8 weeks (scale 0-10),[3]; [6],5.3 ± 0.2 abc
same,main vine length (cm) @ 8 weeks,[3]; [7],131.3 ± 6.2 bc cm
same,number egg masses/root system @ 8 weeks,[3]; [7],36.7 ± 4.0 a
same,plant dry weight (g) @ 8 weeks,[3]; [7],6.0 ± 0.3 bc g
same,plant height (mm) @ 3 weeks,[3]; [7],105.8 ± 5.3 cde mm
same,root galling @ 8 weeks (scale 0-10),[3]; [7],5.0 ± 0.4 ab
same,root galling reduction (in words),"[4]; tomato greenhouse, abamectin seed coating alone",approximately two rating classes below the check
same,J2/50 ml soil,[4]; [6],20.3 ± 4.3ab
same,Plant dry weight(g),[4]; [6],5.24 ± 0.35b g
same,Plant height(cm),[4]; [6],27.33 ± 0.72cd cm
same,egg count/root,[4]; [6],346133 ± 39003 days
same,egg masses/root,[4]; [6],454.2 ± 62.7c
same,J2/50 ml soil,[4]; [7],7.2 ± 5.4ab
same,Plant dry weight(g),[4]; [7],6.31 ± 0.21c g
same,Plant height(cm),[4]; [7],26.17 ± 2.14bc cm
same,egg count/root,[4]; [7],205867 ± 66056bc
same,egg masses/root,[4]; [7],381.7 ± 120.3c
same,Root galling,[4]; [6],6.67 ± 0.21ef
same,Root galling,[4]; [7],5.00 ± 0.52c
same,fruit weight (g),[4]; [6],5.19 ± 0.18bc g
same,fruit weight (g),[4]; [7],6.00 ± 0.14c g
same,number of fruits/plant,[4]; [6],31.0 ± 4.6bcd
same,total fruit weight/plant (g),[4]; [6],160.3 ± 22.8bc g
same,number of fruits/plant,[4]; [7],40.5 ± 1.5cde
same,total fruit weight/plant (g),[4]; [7],243.3 ± 11.8 g·days
